Laboratory results from article PMC8368196, “Phase 1 study of the ATR inhibitor berzosertib (formerly M6620, VX-970) combined with gemcitabine ± cisplatin in patients with advanced solid tumours” (British Journal of Cancer, 2021).
Like-named read-outs stand apart in the source and are kept apart here.

What was measured:
ATR = system: ATR; parameters: method as in PMID 23222511, PMID 25010037; details: inhibitor of ATR; cited from earlier work
[1] = system: patients with advanced solid tumours
Text: Part A was a 3 + 3 dose-escalation Phase 1 study evaluating the safety, tolerability, pharmacokinetics (PK) and preliminary efficacy of berzosertib in combination with gemcitabine with or without cisplatin (NCT02157792) (Fig. 1). Patients were enrolled in cohorts of three, with subsequent cohort expansion and dose-escalation decisions based on safety review, available PK data and observations of dose-limiting toxicities (DLTs) until the end of treatment cycle 1.
A 7–14-day lead-in period with single ascending doses of intravenous (i.v.) berzosertib was planned to assess the safety of berzosertib monotherapy; the requirement for the lead-in period was removed after review of safety data both during the study and from a concurrent study of berzosertib monotherapy.[17] […] Based on preclinical studies, a starting dose of 18 mg/m^2 and a dosing regimen of i.v. berzosertib on days 2 and 9, ~24 ± 4 h after dosing with gemcitabine ± cisplatin, was selected.[17] […] Patients received i.v. gemcitabine on days 1 and 8, with or without i.v. cisplatin on day 1. […]
Treatment-emergent adverse events (TEAEs) and DLTs were reported using National Cancer Institute (NCI) Common Terminology Criteria for Adverse Events (CTCAE) version 4.0. […] All AEs of any grade were recorded and followed up until resolution. Safety was evaluated throughout treatment and was used to inform dose-escalation decisions. […]

[2] = Berzosertib plasma and urine pharmacokinetics (LC-MS/MS, non-compartmental analysis); format: in vivo, human; details: for AUC(0-inf) / Cmax / clearance / Vd / half-life: iv, plasma; for Vd: read-out: Vss
Procedure: PK assessments for berzosertib were conducted during the monotherapy lead-in and during cycles 1 and 2. Blood samples for berzosertib plasma PK assessments were collected following the single-agent dose, from day 1 of combination dosing (pre-dose, 0.5 h before the end of infusion, at end of infusion and 0.5, 1, 2, 3, 7, 23, 47 and 71 h after the end of infusion), on day 9 (pre-dose) and cycle 2 day 2 (pre-dose and 2 h after the end of infusion). Cumulative urine samples were collected for PK assessments on days 2 and 3 of cycle 1 (pre-dose—3, 3–7, 7–11 and 11–23 h). Berzosertib concentrations were quantified using a validated liquid chromatography tandem-mass spectrometry method and plasma PK was characterised by non-compartmental analyses using Phoenix WinNonlin 6.4 (Certara USA Inc, Princeton, NJ, USA).
Safety data, baseline patient demographics and disease characteristics were summarised descriptively for the combination safety set—which included all enrolled patients who received at least one dose of study drug. PK data were collected in the PK analysis set, defined as all enrolled patients who received at least one dose of berzosertib and provided at least one measurable post-dose sample. […] Standard non-compartmental methods were used to determine PK parameters.

[3] = human, 18 mg/m2, berzosertib 18 mg/m^2 i.v., lead-in period, berzosertib alone, mean (% CV), n = 3
[4] = human, 36 mg/m2, berzosertib 36 mg/m^2 i.v., lead-in period, berzosertib alone, mean (% CV), n = 3
[5] = human, 60 mg/m2, berzosertib 60 mg/m^2 i.v., lead-in period, berzosertib alone, mean (% CV), n = 4
[6] = human, 72 mg/m2, berzosertib 72 mg/m^2 i.v., lead-in period, berzosertib alone, mean (% CV), n = 7
[7] = human, 90 mg/m2, berzosertib 90 mg/m^2 i.v., lead-in period, berzosertib alone, mean (% CV), n = 6
[8] = human, 140 mg/m2, berzosertib 140 mg/m^2 i.v., lead-in period, berzosertib alone, mean (% CV), n = 5
[9] = human, 210 mg/m2, berzosertib 210 mg/m^2 i.v., lead-in period, berzosertib alone, mean (% CV), n = 2

## CNCc1ccc(-c2cc(-c3nc(-c4ccc(S(=O)(=O)C(C)C)cc4)cnc3N)on2)cc1 [Berzosertib]
ATR
  IC50: 19 nM
[1]; in vivo
  Trends in laboratory results (serum chemistry, haematology, urinalysis), vital signs or ECG parameters attributable to treatment: no clinically meaningful trends
[1]; on second infusion of berzosertib, no clear relationship to dose
  Patients with acute hypersensitivity: < 5%
[2]; from 18 to 210 mg/m^2
  Dose proportionality of exposure: approximately dose-proportional
[2]; human, intravenous, part A, urine, read-out: Mean renal clearance (converted)
  CL renal: 60 mL/min
[2]; [3]
  AUC(0-inf): 351 ng·h/mL
  Cmax: 72 ng/mL
  clearance: 1640 mL/min
  Vd: 1600 L
[2]; human, 18 mg/m2, berzosertib 18 mg/m^2 i.v., lead-in period, berzosertib alone, mean (% CV), n = 3, read-out: t½ (converted)
  half-life: 14 h
[2]; [4]
  AUC(0-inf): 913 ng·h/mL
  Cmax: 176 ng/mL
  clearance: 1500 mL/min
  Vd: 1280 L
[2]; human, 36 mg/m2, berzosertib 36 mg/m^2 i.v., lead-in period, berzosertib alone, mean (% CV), n = 3, read-out: t½ (converted)
  half-life: 14.2 h
[2]; [5]
  AUC(0-inf): 1700 ng·h/mL
  Cmax: 345 ng/mL
  clearance: 1300 mL/min
  Vd: 1280 L
[2]; human, 60 mg/m2, berzosertib 60 mg/m^2 i.v., lead-in period, berzosertib alone, mean (% CV), n = 4, read-out: t½ (converted)
  half-life: 15 h
[2]; [6]
  AUC(0-inf): 2280 ng·h/mL
  Cmax: 536 ng/mL
  clearance: 1040 mL/min
  Vd: 1040 L
[2]; human, 72 mg/m2, berzosertib 72 mg/m^2 i.v., lead-in period, berzosertib alone, mean (% CV), n = 7, read-out: t½ (converted)
  half-life: 15.2 h
[2]; [7]
  AUC(0-inf): 2370 ng·h/mL
  Cmax: 451 ng/mL
  clearance: 1240 mL/min
  Vd: 1320 L
[2]; human, 90 mg/m2, berzosertib 90 mg/m^2 i.v., lead-in period, berzosertib alone, mean (% CV), n = 6, read-out: t½ (converted)
  half-life: 17.2 h
[2]; [8]
  AUC(0-inf): 4550 ng·h/mL
  Cmax: 817 ng/mL
  clearance: 1010 mL/min
  Vd: 1150 L
[2]; human, 140 mg/m2, berzosertib 140 mg/m^2 i.v., lead-in period, berzosertib alone, mean (% CV), n = 5, read-out: t½ (converted)
  half-life: 17 h
[2]; [9]
  AUC(0-inf): 6130 ng·h/mL
  Cmax: 808 ng/mL
  clearance: 1270 mL/min
  Vd: 1550 L
[2]; human, 210 mg/m2, berzosertib 210 mg/m^2 i.v., lead-in period, berzosertib alone, mean (% CV), n = 2, read-out: t½ (converted)
  half-life: 16.8 h
[2]; human, i.v., 18–210 mg/m^2, read-out: Apparent terminal half-life (converted)
  half-life: ~17 h
[2]; in vivo
  PK when administered ~24 h after gemcitabine, with or without cisplatin, versus berzosertib alone: not significantly different
[2]; part A
  Mean percentage excreted in the urine: 5%
[2]; weekly administration
  Accumulation: not observed
